According to patent US20110256605A1, “CELLS WITH NON-NATURAL PHYSIOLOGIES DERIVED BY EXPRESSING LIGHT-POWERED PROTON PUMPS IN ONE OR MORE MEMBRANES” (The Regents of the University of California, a California …, priority 2010, published 2011):

Tested on: E. coli flagellar motor / cellular pmf
Assay type: cell-based
Method: Cell culture. We expressed the SAR86 γ-proteobacterial PR-variant (Geneart, Inc) in E. coli cells (RP437 DE3 ΔcheY Cm^R) using a T7 based expression system (pET200, Kan^R, Invitrogen). Cells were grown in T broth (1% Tryptone, 0.5% NaCl) supplemented with kanamycin (25 μg/ml). In mid-log phase, PR expression was induced with 1 mM IPTG and the medium was supplemented with 10 μM ethanolic all-trans-retinal. Cells were collected in late log phase by gentle centrifugation (4500×g, 5 min) and carefully resuspended in motility medium (1 mM PBS (Ambion), 0.1 mM EDTA, pH 7.4). PR^+ denotes cells expressing proteorhodopsin, and PR^− denotes cells (RP437 DE3 ΔcheY Cm^R) without the PR plasmid. […] Unless otherwise noted, all experiments were done in glucose free motility medium and at room temperature.
Instrumentation. […]
To increase the accuracy of the flagellar rotation measurements, a tethered cell geometry was employed (FIG. 2A) which permitted the extended observation of the same bacterium in different illumination conditions. PR^+ cells were allowed to stick to the coverslip via a flagellum, and the angular rotation rate of cells was monitored (FIG. 2A). […]

For N#CC(C#N)=NNc1cccc(Cl)c1 [CCCP, carbonyl cyanide 3-chlorophenylhydrazone], the “Effect on bacterial motility” value (100 μM, low oxygen cultures, not restored with 50 seconds of green illumination) was “eliminated all bacterial motility”.

[N-]=[N+]=[N-] [azide, sodium azide] was tested, and the IC50 (without green light, azide 0 to 110 mM, read-out: Azide concentration at which pmf dropped to 50% of its original value) was 55 mM.
